# Laboratory results published in PubChem BioAssay (NCI).
#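 Method: 48-hour compound exposure of cells in 96-well plates, five concentrations, linear interpolation of endpoints. TGI denotes the concentration required for complete inhibition of growth.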
# How the values were obtained:
# Test in all cases: NCI-60 cell line screen, 48 h
# SF-295 CNS = system: SF-295 CNS
# EKVX NSCLC = system: EKVX NSCLC
# HCT-116 colon = system: HCT-116 colon
# HCT-15 colon = system: HCT-15 colon
# IGROV1 ovarian = system: IGROV1 ovarian
# SK-OV-3 ovarian = system: SK-OV-3 ovarian
# SK-MEL-5 melanoma = system: SK-MEL-5 melanoma
# NCI/ADR-RES ovarian = system: NCI/ADR-RES ovarian
# NCI-H460 lung = system: NCI-H460 lung
# UACC-257 melanoma = system: UACC-257 melanoma
# KM12 colon = system: KM12 colon
# HOP-92 NSCLC = system: HOP-92 NSCLC
# SW-620 colon = system: SW-620 colon
# SF-268 CNS = system: SF-268 CNS
# HCC-2998 colon = system: HCC-2998 colon
# SR leukemia = system: SR leukemia
# BT-549 breast = system: BT-549 breast
# HOP-62 NSCLC = system: HOP-62 NSCLC
# CCRF-CEM leukemia = system: CCRF-CEM leukemia
# MDA-MB-435 = system: MDA-MB-435
# OVCAR-3 ovarian = system: OVCAR-3 ovarian
# SNB-75 CNS = system: SNB-75 CNS
# M14 melanoma = system: M14 melanoma
# LOX IMVI melanoma = system: LOX IMVI melanoma
# NCI-H522 lung = system: NCI-H522 lung
# SN12C renal = system: SN12C renal
# MCF7 breast = system: MCF7 breast
# OVCAR-5 ovarian = system: OVCAR-5 ovarian
# A498 renal = system: A498 renal
# T-47D breast = system: T-47D breast
# HS 578T breast = system: HS 578T breast
# UACC-62 melanoma = system: UACC-62 melanoma
# K-562 leukemia = system: K-562 leukemia
# MDA-N = system: MDA-N
# COLO 205 colon = system: COLO 205 colon
# HT29 colon = system: HT29 colon
# RXF 393 renal = system: RXF 393 renal
# HL-60(TB) leukemia = system: HL-60(TB) leukemia
# SK-MEL-28 melanoma = system: SK-MEL-28 melanoma
# MOLT-4 leukemia = system: MOLT-4 leukemia
# RPMI-8226 leukemia = system: RPMI-8226 leukemia
# 786-0 renal = system: 786-0 renal
# A549 NSCLC = system: A549 NSCLC
# SK-MEL-2 melanoma = system: SK-MEL-2 melanoma
# U251 CNS = system: U251 CNS
# ACHN renal = system: ACHN renal
# PC-3 prostate = system: PC-3 prostate
# OVCAR-8 ovarian = system: OVCAR-8 ovarian
# SF-539 CNS = system: SF-539 CNS
# MALME-3M melanoma = system: MALME-3M melanoma
# UO-31 renal = system: UO-31 renal
# SNB-19 CNS = system: SNB-19 CNS
# TK-10 renal = system: TK-10 renal
# DU-145 prostate = system: DU-145 prostate
# NCI-H23 lung = system: NCI-H23 lung
# MDA-MB-231 breast = system: MDA-MB-231 breast
# CAKI-1 renal = system: CAKI-1 renal
# OVCAR-4 ovarian = system: OVCAR-4 ovarian
# NCI-H226 lung = system: NCI-H226 lung
structure (smiles),measurement,setting,value
CN(C)c1ccc(C=C2C(=O)NC(=S)NC2=O)c2ccccc12,TGI,SF-295 CNS,> 100 µM
same,TGI,EKVX NSCLC,> 100 µM
same,TGI,HCT-116 colon,> 100 µM
same,TGI,HCT-15 colon,> 100 µM
same,TGI,IGROV1 ovarian,> 100 µM
same,TGI,SK-OV-3 ovarian,> 100 µM
same,TGI,SK-MEL-5 melanoma,> 100 µM
same,TGI,NCI/ADR-RES ovarian,> 100 µM
same,TGI,NCI-H460 lung,> 100 µM
same,TGI,UACC-257 melanoma,> 100 µM
same,TGI,KM12 colon,> 100 µM
same,TGI,HOP-92 NSCLC,91.4 µM
same,TGI,SW-620 colon,> 100 µM
same,TGI,SF-268 CNS,76.9 µM
same,TGI,HCC-2998 colon,> 100 µM
same,TGI,SR leukemia,> 100 µM
same,TGI,BT-549 breast,> 100 µM
same,TGI,HOP-62 NSCLC,> 100 µM
same,TGI,CCRF-CEM leukemia,> 100 µM
same,TGI,MDA-MB-435,> 100 µM
same,TGI,OVCAR-3 ovarian,> 100 µM
same,TGI,SNB-75 CNS,> 100 µM
same,TGI,M14 melanoma,> 100 µM
same,TGI,LOX IMVI melanoma,77 µM
same,TGI,NCI-H522 lung,37.5 µM
same,TGI,SN12C renal,> 100 µM
same,TGI,MCF7 breast,> 100 µM
same,TGI,OVCAR-5 ovarian,> 100 µM
same,TGI,A498 renal,> 100 µM
same,TGI,T-47D breast,> 100 µM
same,TGI,HS 578T breast,71.8 µM
same,TGI,UACC-62 melanoma,> 100 µM
same,TGI,K-562 leukemia,> 100 µM
same,TGI,MDA-N,> 100 µM
same,TGI,COLO 205 colon,> 100 µM
same,TGI,HT29 colon,> 100 µM
same,TGI,RXF 393 renal,76.4 µM
same,TGI,HL-60(TB) leukemia,> 100 µM
same,TGI,SK-MEL-28 melanoma,> 100 µM
same,TGI,MOLT-4 leukemia,> 100 µM
same,TGI,RPMI-8226 leukemia,> 100 µM
same,TGI,786-0 renal,> 100 µM
same,TGI,A549 NSCLC,> 100 µM
same,TGI,SK-MEL-2 melanoma,> 100 µM
same,TGI,U251 CNS,> 100 µM
same,TGI,ACHN renal,> 100 µM
same,TGI,PC-3 prostate,> 100 µM
same,TGI,OVCAR-8 ovarian,77 µM
same,TGI,SF-539 CNS,> 100 µM
same,TGI,MALME-3M melanoma,> 100 µM
same,TGI,UO-31 renal,> 100 µM
same,TGI,SNB-19 CNS,> 100 µM
same,TGI,TK-10 renal,> 100 µM
same,TGI,DU-145 prostate,> 100 µM
same,TGI,NCI-H23 lung,> 100 µM
same,TGI,MDA-MB-231 breast,> 100 µM
same,TGI,CAKI-1 renal,> 100 µM
same,TGI,OVCAR-4 ovarian,> 100 µM
same,TGI,NCI-H226 lung,> 100 µM
CCO/C=N/C1=C(C#N)SC2=N/C(=C\c3ccccc3)C(=O)N21,TGI,SF-295 CNS,> 100 µM
same,TGI,EKVX NSCLC,> 100 µM
same,TGI,HCT-116 colon,> 100 µM
same,TGI,HCT-15 colon,> 100 µM
same,TGI,IGROV1 ovarian,> 100 µM
same,TGI,SK-OV-3 ovarian,> 100 µM
same,TGI,SK-MEL-5 melanoma,> 100 µM
same,TGI,NCI/ADR-RES ovarian,> 100 µM
same,TGI,NCI-H460 lung,> 100 µM
same,TGI,UACC-257 melanoma,> 100 µM
same,TGI,KM12 colon,> 100 µM
same,TGI,HOP-92 NSCLC,> 100 µM
same,TGI,SW-620 colon,> 100 µM
same,TGI,SF-268 CNS,> 100 µM
same,TGI,HCC-2998 colon,> 100 µM
same,TGI,SR leukemia,> 93.8 µM
same,TGI,BT-549 breast,> 100 µM
same,TGI,HOP-62 NSCLC,> 100 µM
same,TGI,CCRF-CEM leukemia,> 100 µM
same,TGI,MDA-MB-435,> 100 µM
same,TGI,OVCAR-3 ovarian,> 100 µM
same,TGI,SNB-75 CNS,> 100 µM
same,TGI,M14 melanoma,> 100 µM
same,TGI,LOX IMVI melanoma,> 100 µM
same,TGI,NCI-H522 lung,> 100 µM
same,TGI,SN12C renal,> 100 µM
same,TGI,MCF7 breast,> 100 µM
same,TGI,OVCAR-5 ovarian,> 100 µM
same,TGI,A498 renal,> 100 µM
same,TGI,T-47D breast,> 100 µM
same,TGI,HS 578T breast,> 100 µM
same,TGI,UACC-62 melanoma,> 100 µM
same,TGI,K-562 leukemia,> 80.4 µM
same,TGI,MDA-N,> 100 µM
same,TGI,COLO 205 colon,> 100 µM
same,TGI,HT29 colon,> 100 µM
same,TGI,RXF 393 renal,> 100 µM
same,TGI,HL-60(TB) leukemia,> 83.2 µM
same,TGI,SK-MEL-28 melanoma,> 100 µM
same,TGI,MOLT-4 leukemia,> 100 µM
same,TGI,RPMI-8226 leukemia,> 100 µM
same,TGI,786-0 renal,> 100 µM
same,TGI,A549 NSCLC,> 100 µM
same,TGI,SK-MEL-2 melanoma,> 100 µM
same,TGI,U251 CNS,> 100 µM
same,TGI,ACHN renal,> 100 µM
same,TGI,PC-3 prostate,> 100 µM
same,TGI,OVCAR-8 ovarian,> 100 µM
same,TGI,SF-539 CNS,> 100 µM
same,TGI,MALME-3M melanoma,> 100 µM
same,TGI,UO-31 renal,> 100 µM
same,TGI,SNB-19 CNS,> 100 µM
same,TGI,TK-10 renal,> 100 µM
same,TGI,DU-145 prostate,> 100 µM
same,TGI,NCI-H23 lung,> 100 µM
same,TGI,MDA-MB-231 breast,> 100 µM
same,TGI,CAKI-1 renal,> 100 µM
same,TGI,OVCAR-4 ovarian,> 100 µM
same,TGI,NCI-H226 lung,> 100 µM
BrCC[N+]12CC[N+](CCBr)(CC1)C2,TGI,SF-295 CNS,> 100 µM
same,TGI,EKVX NSCLC,> 100 µM
same,TGI,HCT-116 colon,> 100 µM
same,TGI,HCT-15 colon,> 100 µM
same,TGI,IGROV1 ovarian,> 100 µM
same,TGI,SK-OV-3 ovarian,> 100 µM
same,TGI,SK-MEL-5 melanoma,> 100 µM
same,TGI,NCI/ADR-RES ovarian,> 100 µM
same,TGI,NCI-H460 lung,> 100 µM
same,TGI,UACC-257 melanoma,> 100 µM
same,TGI,KM12 colon,> 100 µM
same,TGI,HOP-92 NSCLC,> 100 µM
same,TGI,SW-620 colon,> 100 µM
same,TGI,SF-268 CNS,> 100 µM
same,TGI,HCC-2998 colon,> 100 µM
same,TGI,SR leukemia,> 100 µM
same,TGI,BT-549 breast,> 100 µM
same,TGI,HOP-62 NSCLC,> 100 µM
same,TGI,CCRF-CEM leukemia,> 100 µM
same,TGI,MDA-MB-435,> 100 µM
same,TGI,OVCAR-3 ovarian,> 100 µM
same,TGI,SNB-75 CNS,> 100 µM
same,TGI,M14 melanoma,> 100 µM
same,TGI,LOX IMVI melanoma,> 100 µM
same,TGI,NCI-H522 lung,> 100 µM
same,TGI,SN12C renal,> 100 µM
same,TGI,MCF7 breast,> 100 µM
same,TGI,OVCAR-5 ovarian,> 100 µM
same,TGI,A498 renal,> 100 µM
same,TGI,T-47D breast,> 100 µM
same,TGI,HS 578T breast,> 100 µM
same,TGI,UACC-62 melanoma,> 100 µM
same,TGI,K-562 leukemia,> 100 µM
same,TGI,MDA-N,> 100 µM
same,TGI,COLO 205 colon,> 100 µM
same,TGI,HT29 colon,> 100 µM
same,TGI,RXF 393 renal,> 100 µM
same,TGI,HL-60(TB) leukemia,> 100 µM
same,TGI,SK-MEL-28 melanoma,> 100 µM
same,TGI,MOLT-4 leukemia,> 100 µM
same,TGI,RPMI-8226 leukemia,> 100 µM
same,TGI,786-0 renal,> 100 µM
same,TGI,A549 NSCLC,> 100 µM
same,TGI,SK-MEL-2 melanoma,> 100 µM
same,TGI,U251 CNS,> 100 µM
same,TGI,ACHN renal,> 100 µM
same,TGI,PC-3 prostate,> 100 µM
same,TGI,OVCAR-8 ovarian,> 100 µM
same,TGI,SF-539 CNS,> 100 µM
same,TGI,MALME-3M melanoma,> 100 µM
same,TGI,UO-31 renal,> 100 µM
same,TGI,SNB-19 CNS,> 100 µM
same,TGI,TK-10 renal,> 100 µM
same,TGI,DU-145 prostate,> 100 µM
same,TGI,NCI-H23 lung,> 100 µM
same,TGI,MDA-MB-231 breast,> 100 µM
same,TGI,CAKI-1 renal,> 100 µM
same,TGI,OVCAR-4 ovarian,> 100 µM
same,TGI,NCI-H226 lung,> 100 µM
